Patent US11098061B2 (Celgene CAR LLC, priority 2013, dated 2021)

Experiments:
[1] = target: p38a activated, mitogen-activated protein kinase-activated protein kinase 2 (MAPKAP-K2 or MK-2) enzyme (Homo sapiens (Human), UniProt P49137); assay: MK2 Omnia continuous-read kinase assay for compound potency; assay type: biochemical; conditions: [MK-2]=0.4 nM, [ATP]=1.0 mM, [ST3-Sox]=10 μM
From the text: The protocol below describes a continuous-read kinase assay optimized to measure potency of compounds against p38a activated, mitogen-activated protein kinase-activated protein kinase 2 (MAPKAP-K2 or MK-2) enzyme. The mechanics of the assay platform are best described by the vendor (Invitrogen, Carlsbad, Calif.) on their website at the following URL: invitrogen.com/search/global/searchAction. action?resultPage=1 &resultsPerPage=15 &query=om nia&personaFilterTerm=Support+%26+Troubleshoot
Kinase reactions were started with the addition of 40 μL of MK-2 enzyme and monitored every 71 seconds for 30-240 minutes at λex360/λem485 in a Synergy^2, Synergy^4 or Synergy H^4 plate reader from BioTek (Winooski, Vt.). […] Initial velocity (0 minutes to +30 minutes) from each reaction was estimated from the slope of a plot of relative fluorescence units vs time (minutes) and normalized to the no enzyme and no inhibitor control groups for % Inhibition. The resulting % Inhibition values were then plotted against inhibitor concentration to estimate IC50 from log[Inhibitor] vs Response, Variable Slope model in GraphPad Prism from GraphPad Software (San Diego, Calif.).
[MK-2]=0.4 nM, [ATP]=1.0 mM and [ST3-Sox]=10 μM (ATP ^appKM=8-10 μM)

MK2 = MK2 (Homo sapiens (Human), UniProt P49137); assay: MK2 modification assessment by whole protein mass spectrometry; assay type: binding; conditions: intact MK2, 60 min, 10-fold excess of compound to protein
MK2, sequence (P49137 whole entry): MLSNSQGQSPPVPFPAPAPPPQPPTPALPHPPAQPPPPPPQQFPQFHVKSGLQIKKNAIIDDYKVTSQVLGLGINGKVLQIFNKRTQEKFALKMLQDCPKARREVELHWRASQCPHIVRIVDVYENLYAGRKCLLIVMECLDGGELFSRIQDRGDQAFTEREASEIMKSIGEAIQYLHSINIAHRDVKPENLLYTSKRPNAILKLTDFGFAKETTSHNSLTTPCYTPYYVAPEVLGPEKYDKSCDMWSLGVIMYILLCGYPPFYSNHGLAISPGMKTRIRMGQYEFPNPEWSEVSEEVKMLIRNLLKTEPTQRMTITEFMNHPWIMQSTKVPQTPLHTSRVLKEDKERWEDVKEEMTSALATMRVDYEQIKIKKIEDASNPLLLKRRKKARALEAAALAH
Method: Modification of MK2 is measured by whole protein MS analysis. […] 5 μL aliquots of the samples were diluted with 15 μL of 0.2% TFA prior to micro C4 ZipTipping directly onto the MALDI target using sinapinic acid as the desorption matrix (10 mg/ml in 0.1% TFA:Acetonitrile 50:50). Analysis was performed on a AB Sciex 4800 MALDI TOF/TOF retro fitted with an HM2 detector (CovalX). Percent modification of target MK2 (i.e., the percent of total MK2 modified by the test compound) for each compound was calculated by subtracting the centroid mass of the compound treated MK2 from the centroid mass of the control MK2 and dividing that value with the mass of the compound.

p38a activated, mitogen-activated protein kinase-activated protein kinase 2 (MAPKAP-K2 or MK-2) enzyme, sequence (P49137 whole entry): as above

Structure (SMILES)	IC50 [1] [nM]	MK2 Mass Mod (MK2)
C=CC(=O)N1Cc2cccc(NC(=O)c3ccc4cc5n(c4c3)C3(CCC3)CNC5=O)c2C1 [Compound V-48, N-(2-acryloylisoindolin-4-yl)-1′-oxo-2′,3′-dihydro-1′H-spiro[cyclobutane-1,4′-pyrazino [1,2-a]indole]-7′-carboxamide]	> 1000	G (mass modification ≤30%)
C=CC(=O)Nc1cc(-c2cc(Nc3c(N[C@H](C)c4ccccc4)c(=O)c3=O)ccn2)ccc1OC [VI-9, (R)—N-(5-(4-((3,4-dioxo-2-((1-phenylethyl)amino)cyclobut-1-en-1-yl)amino)pyridin-2-yl)-2-methoxyphenyl)acrylamide]	> 1000	G (mass modification ≤30%)
C=CC(=O)N1CCC[C@H](NC(=O)c2ccc3cc4n(c3c2)C2(CCC2)CNC4=O)C1 [Compound V-47, (S)—N-(1-acryloylpiperidin-3-yl)-1′-oxo-2′,3′-dihydro-1′H-spiro[cyclobutane-1,4′-pyrazino[1,2-a]indole]-7′-carboxamide]	> 1000	G (mass modification ≤30%)
C=CC(=O)N[C@@H]1CCCN(C(=O)c2ccc3cc4n(c3c2)C2(CCC2)CNC4=O)C1 [Compound V-52, (R)—N-(1-(1′-oxo-2′,3′-dihydro-1′H-spiro[cyclobutane-1,4′-pyrazino [1,2-a]indol]-7′-ylcarbonyl)piperidin-3-yl)acrylamide]	> 1000	G (mass modification ≤30%)
C=CC(=O)NC1CCCCC1NC(=O)c1ccc2cc3n(c2c1)CCNC3=O (racemic) [Compound V-10, Racemic N-((1S,2R)-2-acrylamidocyclohexyl)-1-oxo-1,2,3,4-tetrahydropyrazino[1,2-a]indole-7-carboxamide]	> 1000	G (mass modification ≤30%)
C=CC(=O)Nc1cc(NC(=O)c2ccc3cc4n(c3c2)C2(CCC2)CNC4=O)ccc1C [Compound V-53, N-(3-acrylamido-4-methylphenyl)-1′-oxo-2′,3′-dihydro-1′H-spiro[cyclobutane-1,4′-pyrazino[1,2-a]indole]-7′-carboxamide]	> 1000	E (mass modification of ≥70%)
C=CC(=O)Nc1cc(-c2cc(-c3cc4c(s3)C(=O)N[C@H](C)CN4)ccn2)ccc1OCCOC [III-d-1, (R)—N-(2-(2-methoxyethoxy)-5-(4-(3-methyl-5-oxo-2,3,4,5-tetrahydro-1H-thieno[3,2-e][1,4]diazepin-7-yl)pyridin-2-yl)phenyl)acrylamide]	> 1000	E (mass modification of ≥70%)
C=CC(=O)NC1CCCC1NC(=O)c1ccc2cc3n(c2c1)C1(CCC1)CNC3=O (racemic) [Compound V-55, N-cis-(2-acrylamidocyclopentyl)-1′-oxo-2′,3′-dihydro-1′H-spiro[cyclobutane-1,4′-pyrazino[1,2-a]indole]-7′-carboxamide (racemic)]	> 1000	G (mass modification ≤30%)
C[C@@H]1CNc2c(sc3ccc(C(=O)Nc4ccc5c(c4)N(C(=O)/C=C/CN(C)C)CCO5)cc23)C(=O)N1 [III-9, (R,E)-N-(4-(4-(dimethylamino)but-2-enoyl)-3,4-dihydro-2H-benzo[b][1,4]oxazin-6-yl)-3-methyl-5-oxo-2,3,4,5-tetrahydro-1H-benzo[4,5]thieno[3,2-e][1,4]diazepine-9-carboxamide]	> 1000	F (mass modification of 31-69%)
CN(C)C/C=C/C(=O)N1CCOc2ccc(NC(=O)c3ccc4cc5n(c4c3)CCNC5=O)cc21 [Compound V-4, (E)-N-(4-(4-(dimethylamino)but-2-enoyl)-3,4-dihydro-2H-benzo[b][1,4]oxazin-6-yl)-1-oxo-1,2,3,4-tetrahydropyrazino[1,2-a]indole-7-carboxamide]	> 1000	G (mass modification ≤30%)
C=CC(=O)N1CCC[C@@H](NC(=O)c2ccc3cc4n(c3c2)CCNC4=O)C1 [Compound V-3, (R)—N-(1-acryloylpiperidin-3-yl)-1-oxo-1,2,3,4-tetrahydropyrazino[1,2-a]indole-7-carboxamide]	> 1000	G (mass modification ≤30%)
C=CC(=O)N[C@H]1COC[C@H]1NC(=O)c1ccc2cc3n(c2c1)C1(CCC1)CNC3=O (racemic) [Compound V-49, Cis-N-(4-acrylamidotetrahydrofuran-3-yl)-1′-oxo-2′,3′-dihydro-1′H-spiro[cyclobutane-1,4′-pyrazino[1,2-a]indole]-7′-carboxamide (racemic)]	> 1000	G (mass modification ≤30%)

Continued, values first:

IC50 [1] [nM]	MK2 Mass Mod (MK2)	Structure (SMILES)
< 100	G (mass modification ≤30%)	C=CC(=O)N1CC(C)(C)Oc2ccc(-c3ccc4c(ccc5sc6c(c54)NC[C@@H](C)NC6=O)n3)cc21 [III-55, (R)-3-(4-acryloyl-2,2-dimethyl-3,4-dihydro-2H-benzo[b][1,4]oxazin-6-yl)-10-methyl-9,10,11,12-tetrahydro-8H-[1,4]diazepino[5′,6′:4,5]thieno[3,2-f]quinolin-8-one]
101 to 500	E (mass modification of ≥70%)	C=CC(=O)N1CCc2ccc(NC(=O)c3ccc4cc5n(c4c3)CCNC5=O)cc21 [Compound V-9, N-(1-acryloylindolin-6-yl)-1-oxo-1,2,3,4-tetrahydropyrazino[1,2-a]indole-7-carboxamide]
< 100	E (mass modification of ≥70%)	C=CC(=O)Nc1cc(-c2cc(-c3cc4c([nH]3)C3(CCCNC3)CNC4=O)ccn2)ccc1N1CCN(C)CC1 (racemic) [Compound I-10, N-(2-(4-methylpiperazin-1-yl)-5-(4-(4′-oxo-1′,4′,5′,6′-tetrahydrospiro[piperidine-3,7′-pyrrolo[3,2-c]pyridin]-2′-yl)pyridin-2-yl)phenyl)acrylamide]
< 100	G (mass modification ≤30%)	C=CC(=O)NC1COCC1NC(=O)c1ccc2sc3c(c2c1)NC[C@@H](C)NC3=O (stereo partly shown) [III-48]
501 to 999	G (mass modification ≤30%)	C=CC(=O)Nc1cc(NC(=O)c2ccc3sc4c(c3c2)NC[C@@H](C)NC4=O)ccc1C(F)(F)F [III-57, (R)—N-(3-acrylamido-4-(trifluoromethyl)phenyl)-3-methyl-5-oxo-2,3,4,5-tetrahydro-1H-benzo[4,5]thieno[3,2-e][1,4]diazepine-9-carboxamide]
< 100	E (mass modification of ≥70%)	C=CC(=O)N1CCOc2ccc(-c3nccc(-c4cc5c([nH]4)CCNC5=O)n3)cc21 [II-25, 2-(2-(4-acryloyl-3,4-dihydro-2H-benzo[b][1,4]oxazin-6-yl)pyrimidin-4-yl)-6,7-dihydro-1H-pyrrolo[3,2-c]pyridin-4(5H)-one]
< 100	G (mass modification ≤30%)	C=CC(=O)Nc1ccc2[nH]c(-c3ccc4cc5n(c4c3)C3(CCC3)CNC5=O)nc2c1 [Compound V-59, N-(2-(1′-oxo-2′,3′-dihydro-1′H-spiro[cyclobutane-1,4′-pyrazino [1,2-a]indol]-7′-yl)-1H-benzo[d]imidazol-5-yl)acrylamide]
101 to 500	E (mass modification of ≥70%)	C=CC(=O)Nc1cc(-c2cc3c(cn2)CCc2c4c(n(C)c2-3)CC2(CC2)NC4=O)ccc1OCCOC [II-7, N-(2-(2-methoxyethoxy)-5-(11′-methyl-7′-oxo-5′,6′,7′,8′,10′,11′-hexahydrospiro[cyclopropane-1,9′-pyrido[3′,4′:4,5]pyrrolo[2,3-f]isoquinolin]-2′-yl)phenyl)acrylamide]
